In US20190321493A1, “MATERIALS AND METHODS FOR TREATING REGIONAL PAIN” (priority 2016, published 2019):

What was measured:
[1] = Drug distribution in DRG after convection enhanced delivery of DAPI; type: in vivo, swine; settings: FIG. 5
Excerpt: FIGS. 5A-5C illustrate drug distribution in swine DRG. […] is a schematic of convection enhanced delivery (CED) needle placement in a DRG. FIG. 5B contains an image of a control DRG. FIG. 5C contains an image of a 4′,6-diamidino-2-phenylindole (DAPI) injected DRG.
An incision was made in the overlying skin at an anatomical level affected by pain in a patient. The subcutaneous fat and musculature were incised and reflected, exposing the bony lamina. Using appropriate instruments, a portion of the lamina was removed to expose the neural elements. The meningeal sleeve surrounding the DRG and spinal nerve was surgically exposed by microdissection of bone and tissue, which may require extending the laminectomy dissection, using standard techniques such as blunt or sharp dissection with meticulous hemostasis. Thereby the DRG was exposed and grossly visualized. A convection enhanced delivery needle was placed into the exposed DRG. RTXcap was injected in a preparation that also contains a contrast agent (e.g., in this case DAPI) allowing direct visualization of analgesic agent injection by eye sight with or without a surgical loupe or surgical operating microscope.

[2] = system: nociceptive neurons of the dorsal root ganglion (DRG); test: MRI-guided intraganglionic injection of RTX (RTXcap) with gadoteridol into swine DRG, substance P immunohistochemistry; type: in vivo
Excerpt: FIGS. 1A-1D are fluorescent immunohistochemistry (IHC) images. […] Nociceptive fibers in all panels are visualized using the biomarker substance P (sP).
FIGS. 2A-2C are fluorescent IHC images of a DRG. […] The outcomes in FIG. 2B and FIG. 2C were predicted from intraprocedural imaging performed during RTX delivery (noted as a success (B) and failure (C) to achieve the intended contrast media dispersion).
Domestic swine were chosen because the porcine lumbar spinal column resembles the human lumbosacral anatomy. Swine were sedated with Telazol and Xylazine, intubated and kept under deep isoflurane inhalation anesthesia for the duration of the procedure titrated to effect. Swine were placed in an MRI scanner (GE 3T, GE Healthcare). Overview MRI imaging was obtained of the lumbosacral spine. DRG at the L4, L5, S1, and S2 level were outlined (FIG. 1A).
The guide needle was passed through the skin lateral to the midline and incrementally advanced ventromedially toward the DRG intraprocedural MRI imaging monitored advancement of the needle, and any deviations from the optimal trajectory were corrected. When the needle tip was visualized directly adjacent to the dorsal aspect of the DRG, the stylet of the guide needle was withdrawn. The stepped stylet was then inserted through the guide needle. The length of the stepped stylet exceeded the length of the guide needle and therefore only the stepped tip of the stylet but not the Quincke tip of the guide needle penetrated the DRG parenchyma. The stepped stylet was then withdrawn and replaced by the stepped needle. The prior insertion of the stepped stylet prevented clogging of the narrow needle tip. RTX 5 μg and gadoteridol 1% V/V was injected in a volume of 50 μl per DRG over a period of 5 minutes (RTX was solubilized in water with sulfobutyl ether β-cyclodextrin, designated as RTXcap). MRI imaging verified when the injection was successful and when the injection needed to be repeated (FIG. 4). Pigs were sacrificed 5 weeks post injection and the tissues harvested for histopathological analysis.

[3] = system: nociceptive fibers in the dorsal horn of the spinal cord; test: Periganglionic (epidural) injection of RTX, immunohistochemistry of spinal cord dorsal horn; type: in vivo, swine; settings: FIG. 3B vs 3A

SMILES | distribution in DRG [1] | neurolysis of the targeted tissue ([2]; RTX 5 μg + gadoteridol 1% V/V, 50 μl per DRG, tissues 5 weeks post injection) | nociceptive neurons (sP fluorescence) in DRG ([2]; after failed image-guided injection, FIG. 2C) | nociceptive neurons (sP fluorescence) in DRG ([2]; after successful MRI-guided injection, FIG. 2B) | nociceptive fibers (substance P) in the dorsal horn of the spinal cord ([2]; intraganglionic injection, RTX solubilized in water with sulfobutyl ether β-cyclodextrin, FIG. 1B vs 1A) | nociceptive fibers (substance P) in the dorsal root ganglion ([2]; intraganglionic injection, RTX solubilized in water with sulfobutyl ether β-cyclodextrin, FIG. 1D vs 1C) | nociceptive fibers in the dorsal horn of the spinal cord [3]
N=C(N)c1ccc(-c2cc3ccc(C(=N)N)cc3[nH]2)cc1 [DAPI, 4′,6-diamidino-2-phenylindole] | good distribution throughout the DRG |  |  |  |  |  | 
C=C(C)[C@]12C[C@@H](C)[C@@]34O[C@](Cc5ccccc5)(O[C@@H]1[C@@H]3C=C(COC(=O)Cc1ccc(O)c(OC)c1)C[C@]1(O)C(=O)C(C)=C[C@@H]41)O2 [RTX, resiniferatoxin] |  | can result in neurolysis of the targeted tissue | normal numbers of nociceptive neurons | elimination of most nociceptive neurons | elimination of nociceptive fibers | elimination of nociceptive fibers | elimination of nociceptive fibers
